Literature values in patent US6579895B2, “Use of a celecoxib composition for fast pain relief” (Pharmacia Corporation, priority 2000, dated 2003).

Tests used:
plasma albumin = plasma albumin (Homo sapiens, UniProt P02768); details: following oral administration
post-surgical pain = details: ibuprofen 400 mg; e.g. post-surgical pain

Sequence of plasma albumin (P02768 25-609): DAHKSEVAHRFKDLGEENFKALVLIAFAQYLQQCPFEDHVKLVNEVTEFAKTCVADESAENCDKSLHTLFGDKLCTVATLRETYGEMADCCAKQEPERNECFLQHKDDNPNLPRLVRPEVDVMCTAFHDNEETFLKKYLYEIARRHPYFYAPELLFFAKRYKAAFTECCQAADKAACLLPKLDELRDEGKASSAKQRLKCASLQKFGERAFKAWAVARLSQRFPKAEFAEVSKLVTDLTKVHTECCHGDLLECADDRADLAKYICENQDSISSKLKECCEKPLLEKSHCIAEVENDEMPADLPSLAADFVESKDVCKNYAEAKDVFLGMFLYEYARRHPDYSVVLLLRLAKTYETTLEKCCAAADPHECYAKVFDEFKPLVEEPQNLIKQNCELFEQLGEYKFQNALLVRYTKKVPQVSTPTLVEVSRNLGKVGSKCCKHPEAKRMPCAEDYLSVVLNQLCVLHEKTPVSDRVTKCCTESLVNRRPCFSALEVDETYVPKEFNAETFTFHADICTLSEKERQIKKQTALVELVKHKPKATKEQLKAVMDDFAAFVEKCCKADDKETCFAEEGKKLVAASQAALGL

## Cc1ccc(-c2cc(C(F)(F)F)nn2-c2ccc(S(N)(=O)=O)cc2)cc1 [celecoxib, 4-[5-(4-methylphenyl)-3-(trifluoromethyl)-1H-pyrazol-1-y1]benzenesulfonamide]
Plasma albumin
  binding to plasma albumin: extensive binding

## CC(C)Cc1ccc(C(C)C(=O)O)cc1 (centres unmarked) [Ibuprofen, ibuprofen]
post-surgical pain
  time after administration to an adequate level of suppression of pain: about 1 hour
